Measurements as given in ChEMBL document CHEMBL5143533, “Development of isoquinolinone derivatives as immunoproteasome inhibitors” (Bioorg Med Chem Lett, 2022).
Where a SMILES comes first, the peptide text is derived from it. The star is where a group is joined. Cbz = O=C(OCc1ccccc1)*

Tests used:
[1] = biological target: T1, Proteasome Macropain subunit MB1 (Homo sapiens, UniProt P28074); assay: Inhibition of 20S constitutive proteosome beta5c subunit (unknown origin) assessed as substrate hydrolysis using Suc-Leu-Leu-Val-Tyr-AMC as fluorogenic substrate at 100 uM
T1 sequence (P28074 whole entry): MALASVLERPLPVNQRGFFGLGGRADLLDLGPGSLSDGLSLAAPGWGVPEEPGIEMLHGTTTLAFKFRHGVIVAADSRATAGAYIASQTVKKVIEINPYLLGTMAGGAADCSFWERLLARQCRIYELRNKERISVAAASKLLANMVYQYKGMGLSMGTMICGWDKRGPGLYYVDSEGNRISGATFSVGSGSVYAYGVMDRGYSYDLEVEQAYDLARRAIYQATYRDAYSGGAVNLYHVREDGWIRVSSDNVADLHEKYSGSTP

[2] = Inhibition of 20S immuno proteosome beta5i subunit (unknown origin) assessed as substrate hydrolysis using Suc-Leu-Leu-Val-Tyr-AMC as fluorogenic substrate at 100 uM; design: species or system Homo sapiens
[3] = Inhibition of 20S immuno proteosome beta5i subunit (unknown origin) assessed as substrate hydrolysis using Z-Leu-Leu-Leu-al as substrate; design: species or system Homo sapiens
[4] = Cytotoxicity against human MM1.R cells assessed as reduction in cell vitality incubated for 24 hrs by MTT assay; format: functional, cell-based; details: MM.1R
[5] = organism: Homo sapiens; assay: Reversible inhibition of 20S immuno proteosome beta 5i subunit (unknown origin) assessed as substrate hydrolysis using Suc-Leu-Leu-Val-Tyr-AMC as substrate at 0.25 to 25 uM by fluorescence based assay; details: dose 0.25-25 µM, time <= 600.0 sec, TDE = time-dependent effect

Row | SMILES | Ki [1] [µM] | Ki [2] [µM] | Ki [3] [µM] | EC50 [4] [µM] | inhibition [5]
1 | CCCCNC(=O)/C=C/Cn1ccc2cc(OC)c(OC)cc2c1=O | 19 | 49 |  |  | 
2 | COc1cc2ccn(C/C=C/C(=O)NC3CCCCC3)c(=O)c2cc1OC | 23 | 55 |  |  | 
3 | CC(C)C[C@@H](C=O)NC(=O)[C@H](CC(C)C)NC(=O)[C@H](CC(C)C)NC(=O)OCc1ccccc1 [MG-132] (Cbz-Leu-Leu-Leu-aldehyde) |  |  | 0.07 |  | 
4 | CC(C)CCNC(=O)Cn1ccc2ccc(Br)cc2c1=O |  |  |  | 17.8 | 
5 | COc1cc2ccn(C/C=C/C(=O)NCCC(C)C)c(=O)c2cc1OC | 1.18 | 1.91 |  |  | Tde
6 | COc1cc2ccn(C/C=C/C(=O)NCCc3ccccc3)c(=O)c2cc1OC | 60 | 45 |  |  | 
7 | COc1cc2ccn(C/C=C/C(=O)NCCCc3ccccc3)c(=O)c2cc1OC | 10.6 | 64 |  |  | 
8 | COc1cc2ccn(C/C=C/C(=O)NCc3ccccc3)c(=O)c2cc1OC |  | 65 |  |  | 
9 | COc1cc2ccn(C/C=C/C(=O)Nc3ccccc3)c(=O)c2cc1OC | 49 | 50 |  |  | 
